No end group written: not given here.
Legend:
[1] = biological target: RBD domain of the SARS-CoV-2 S protein (Severe acute respiratory syndrome coronavirus 2, UniProt P0DTC2); experiment: biochemical; assay type: binding; conditions: KD Tmeasur. 25°C
[2] = tested on: BEAS 2B cells; experiment: MTS cell viability assay, BEAS 2B; assay type: cell-based, human; conditions: 72 h exposure, concentrations up to 1 mM
Experimental: (§1) BEAS 2B (cat. no.: ATCC® CRL-9609™) and Calu-3 (cat. no.: ATCC HTB-55™) cell lines were purchased from the American Type Culture Collection (ATCC, United States). BEAS 2B cells were maintained in Bronchial Epithelial Cell Growth Medium (BEGM) containing Bronchial Epithelial Basal Medium (BEBM cat. no.: CC-3171) supplemented with growth factors (SingleQuotsTM Supplement Pack cat. no.: CC-4175), both from Lonza (Switzerland). […]
(§2) After 72 h of incubation at 37°C, the combined solution of MTS (Promega, United States, cat. no.: G1112) and an electron coupling reagent, phenazine methosulfate (PMS, Sigma-Aldrich, Merck, Germany, cat. no.: P9625) was added to the cell culture media, to a final concentration of 333 μg/ml MTS and 25 μM PMS. Cells were then incubated for 3 h at 37°C in a humidified, 5% CO2 atmosphere, and the absorbance at 490 nm wavelength was measured using a spectrophotometer (Synergy HT Microplate Reader, BioTek, United States). The absorbance values recorded for cells exposed to peptide were compared to values measured for untreated control cells, regarded as 100% cell viability.
(§3) The amount of formazan product measured spectrophotometrically is directly proportional to the number of viable cells ([Berridge et al., 2005]).

[3] = tested on: Calu-3 cells; experiment: MTS cell viability assay, Calu-3; assay type: cell-based, human; conditions: Calu-3, 72 h exposure, concentrations up to 1 mM
Experimental: as §1, §2, §3

[4] = tested on: SARS-CoV-2 S protein - hACE2 interaction; conditions: ref Odolczyk et al., 2021; read-out: IC50 inhibition of virus-host protein-protein interaction; cited from earlier work

Compound: MYGNYE [J3.4, MYGNYE]
- Kd [1]: > 10 µM

Compound: LYGNYE [J3.5, LYGNYE]
- Kd [1]: > 1 µM

Compound: NC(=O)C[C@H](NC(=O)CNC(=O)[C@H](Cc1ccc(O)cc1)NC(=O)[C@@H](N)CC(=O)O)C(=O)N[C@@H](Cc1c[nH]cn1)C(=O)N[C@@H](CCC(=O)O)C(=O)O [J3, DYGNHE]
- Cell viability (MTS) [2]: not affected
- Kd [1]: 0.05 ± 0.01 µM
- Cell viability (MTS) [3]: not affected

Compound: NCCCC[C@H](NC(=O)[C@@H](N)CC(=O)O)C(=O)NCC(=O)N[C@@H](CC(N)=O)C(=O)N[C@@H](Cc1c[nH]cn1)C(=O)N[C@@H](CCC(=O)O)C(=O)O [pep1d, DKGNHE]
- IC50 [4]: 3300 µM

Source: publication PMC9555309, “Improvement of native structure-based peptides as efficient inhibitors of protein-protein interactions of SARS-CoV-2 spike protein and human ACE2” (Frontiers in Molecular Biosciences, 2022)
